In ChEMBL document CHEMBL1681717, “Design and synthesis of a novel, orally active, brain penetrant, tri-substituted thiophene based JNK inhibitor” (Bioorg Med Chem Lett, 2011):
pIC50: −log10 of the molar value.

How the values were obtained:
[1] = target: Mitogen-activated protein kinase 10 (Homo sapiens, UniProt P53779); experiment: Inhibition of recombinant JNK3 after 60 mins by TR-FRET assay
[2] = target: Mitogen-activated protein kinase 9 (Homo sapiens, UniProt P45984); experiment: Inhibition of recombinant JNK2 after 60 mins by TR-FRET assay
[3] = target: Mitogen-activated protein kinase 8 (Homo sapiens, UniProt P45983); experiment: Inhibition of recombinant JNK1 after 60 mins by TR-FRET assay
[4] = target: Mitogen-activated protein kinase 14 (Homo sapiens, UniProt Q16539); experiment: Inhibition of recombinant p38alpha after 60 mins by TR-FRET assay
[5] = target: Mitogen-activated protein kinase 1 (Homo sapiens, UniProt P28482); experiment: Inhibition of recombinant ERK2 after 60 mins by TR-FRET assay
[6] = Solubility of the compound in hank's buffered salt solution; type: physicochemical
MDR1 [7] = experiment: Apparent permeability of the compound from apical to basolateral direction in MDCK2 cells expressing MDR1; type: ADME, cell-based, Canis lupus familiaris, MDCK-II; details: dog, MDCK-MDR1
MDR1 [8] = experiment: Efflux ratio of permeability from basolateral to apical side over apical to basolateral side in MDCK2 cells expressing MDR1; type: ADME, cell-based, Canis lupus familiaris, MDCK-II; details: dog, MDCK-MDR1
[9] = Oxidative metabolic stability in mouse liver microsomes assessed as compound remaining at 5 uM after 120 mins; type: ADME, Microsome; details: read-out: Stability
[10] = Oxidative metabolic stability in human liver microsomes assessed as compound remaining at 5 uM after 120 mins; type: ADME, Microsome; details: read-out: Stability

Mitogen-activated protein kinase 14, sequence (Q16539 whole entry): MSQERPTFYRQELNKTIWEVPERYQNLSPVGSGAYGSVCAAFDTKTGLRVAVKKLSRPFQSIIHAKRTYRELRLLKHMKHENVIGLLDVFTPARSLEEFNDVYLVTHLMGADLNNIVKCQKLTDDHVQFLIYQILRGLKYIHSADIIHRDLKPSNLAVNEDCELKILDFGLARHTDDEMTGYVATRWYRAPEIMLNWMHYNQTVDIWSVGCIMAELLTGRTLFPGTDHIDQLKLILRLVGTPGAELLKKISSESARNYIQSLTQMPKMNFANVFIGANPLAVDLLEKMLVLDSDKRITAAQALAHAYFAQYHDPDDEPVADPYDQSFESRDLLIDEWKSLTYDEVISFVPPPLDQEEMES
Mitogen-activated protein kinase 10, sequence (P53779 whole entry): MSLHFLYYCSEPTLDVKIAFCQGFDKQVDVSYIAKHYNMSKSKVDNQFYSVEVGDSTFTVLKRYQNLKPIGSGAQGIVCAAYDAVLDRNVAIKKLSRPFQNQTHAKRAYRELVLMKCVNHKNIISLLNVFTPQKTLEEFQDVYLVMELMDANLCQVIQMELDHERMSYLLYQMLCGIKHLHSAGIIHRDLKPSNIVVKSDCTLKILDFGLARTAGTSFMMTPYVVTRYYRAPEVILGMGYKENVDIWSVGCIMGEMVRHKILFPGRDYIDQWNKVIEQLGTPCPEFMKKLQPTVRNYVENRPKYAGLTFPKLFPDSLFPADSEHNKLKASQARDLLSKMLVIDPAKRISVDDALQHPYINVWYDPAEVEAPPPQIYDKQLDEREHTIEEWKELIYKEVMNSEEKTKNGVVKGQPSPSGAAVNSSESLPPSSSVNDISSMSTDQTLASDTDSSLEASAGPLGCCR
Mitogen-activated protein kinase 9, sequence (P45984 whole entry): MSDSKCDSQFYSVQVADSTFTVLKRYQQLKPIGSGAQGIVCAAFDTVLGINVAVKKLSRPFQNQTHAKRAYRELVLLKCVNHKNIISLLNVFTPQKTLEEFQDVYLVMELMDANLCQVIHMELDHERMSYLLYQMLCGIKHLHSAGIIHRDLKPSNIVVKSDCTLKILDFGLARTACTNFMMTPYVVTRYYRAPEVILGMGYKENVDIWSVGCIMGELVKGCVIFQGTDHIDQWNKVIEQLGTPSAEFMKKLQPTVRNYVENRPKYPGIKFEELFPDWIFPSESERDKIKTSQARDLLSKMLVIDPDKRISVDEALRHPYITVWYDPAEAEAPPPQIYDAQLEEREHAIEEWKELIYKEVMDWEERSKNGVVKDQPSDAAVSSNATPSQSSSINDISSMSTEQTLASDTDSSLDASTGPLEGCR
Mitogen-activated protein kinase 1, sequence (P28482 whole entry): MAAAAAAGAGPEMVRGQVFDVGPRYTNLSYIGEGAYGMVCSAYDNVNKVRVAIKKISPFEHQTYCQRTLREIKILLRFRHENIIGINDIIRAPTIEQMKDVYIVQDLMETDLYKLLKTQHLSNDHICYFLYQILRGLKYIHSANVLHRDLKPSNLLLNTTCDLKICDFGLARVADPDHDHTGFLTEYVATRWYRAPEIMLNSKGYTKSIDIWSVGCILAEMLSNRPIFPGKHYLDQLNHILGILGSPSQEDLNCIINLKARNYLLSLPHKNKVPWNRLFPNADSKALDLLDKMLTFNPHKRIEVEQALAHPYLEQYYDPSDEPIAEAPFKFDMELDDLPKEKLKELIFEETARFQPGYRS
Mitogen-activated protein kinase 8, sequence (P45983 whole entry): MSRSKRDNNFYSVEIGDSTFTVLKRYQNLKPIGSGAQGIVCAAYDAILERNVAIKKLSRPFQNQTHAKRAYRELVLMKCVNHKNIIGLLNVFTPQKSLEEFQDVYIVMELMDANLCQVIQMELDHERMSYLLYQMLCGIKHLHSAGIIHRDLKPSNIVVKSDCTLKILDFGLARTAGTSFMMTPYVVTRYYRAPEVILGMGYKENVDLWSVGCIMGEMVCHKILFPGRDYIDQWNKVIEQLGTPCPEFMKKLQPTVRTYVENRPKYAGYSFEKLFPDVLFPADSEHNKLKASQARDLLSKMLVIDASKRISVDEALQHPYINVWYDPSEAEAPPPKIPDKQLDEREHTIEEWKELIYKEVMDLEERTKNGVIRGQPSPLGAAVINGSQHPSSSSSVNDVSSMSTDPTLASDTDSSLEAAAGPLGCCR

Row | pIC50 [1] | pIC50 [2] | pIC50 [3] | pIC50 [4] | pIC50 [5] | solubility [6] [µM] | Papp A→B (MDR1 [7]) [×10⁻⁶ cm/s] | efflux ratio (MDR1 [8]) | remaining at 2 h, 5 µM [9] [%] | remaining at 2 h, 5 µM [10] [%] | Structure (SMILES)
1 | 7.48 | 7.30 | 7.55 | < 4.30 | < 4.30 |  |  |  |  |  | O=C(Cc1cccc2cnccc12)Nc1scc(Br)c1-c1ncn[nH]1
2 |  | 4.64 |  | < 4.30 | < 4.30 | 72 | 14.4 |  |  |  | COC(=O)c1sccc1NC(=O)Cc1cccs1
3 | 6.30 | 5.34 | 6.22 |  |  |  |  |  |  |  | COC(=O)c1c(C)csc1NC(=O)Cc1ccc(OCCCn2ccnc2)cc1
4 | 6.79 | 6.12 | 7.02 |  |  |  |  |  |  |  | COC(=O)c1c(C)csc1NC(=O)Cc1cccc2nccnc12
5 | 6.65 | 5.59 | 6.55 |  |  |  |  |  |  |  | COC(=O)c1c(C)csc1NC(=O)Cc1ccc(OCCCN2CCCC2)cc1
6 | 7.60 | 7.38 | 7.82 | < 4.30 | < 4.30 |  |  |  |  |  | Cc1n[nH]c(-c2c(C)csc2NC(=O)CN2C(=O)CCc3ccccc32)n1
7 | 7.47 | 7.05 | 7.38 | < 4.30 | < 4.30 |  |  |  |  |  | O=C(Cc1cccc2ncccc12)Nc1scc(Br)c1-c1ncn[nH]1
8 | 5.99 | 5.38 | 6.16 |  |  |  |  |  |  |  | COC(=O)c1c(C)csc1NC(=O)Cc1cccc2cc[nH]c12
9 | 5.02 | 5.20 | 4.81 |  |  |  |  |  |  |  | CCOC(=O)c1c(C2CC2)csc1NC(=O)Cc1ccc(OC)cc1
10 | 7.55 | 7.38 | 7.60 | < 4.70 | < 4.30 |  |  |  |  |  | O=C(CN1C(=O)CCc2ccccc21)Nc1scc(Br)c1-c1ncn[nH]1

Second part, the compound before the results:

Row | Structure (SMILES) | pIC50 [1] | pIC50 [2] | pIC50 [3] | pIC50 [4] | pIC50 [5] | solubility [6] [µM] | Papp A→B (MDR1 [7]) [×10⁻⁶ cm/s] | efflux ratio (MDR1 [8]) | remaining at 2 h, 5 µM [9] [%] | remaining at 2 h, 5 µM [10] [%]
11 | C#Cc1csc(NC(=O)Cc2ccc(OC)cc2)c1C(=O)OCC | 5.52 | 4.55 | 5.98 |  |  |  |  |  |  | 
12 | COC(=O)c1c(C)csc1NC(=O)Cc1ccc(-c2ccncc2)cc1 | 6.58 | 5.74 | 6.55 |  |  |  |  |  |  | 
13 | N#Cc1csc(NC(=O)Cc2cccc3ncccc23)c1-c1nnc[nH]1 | 7.92 | 7.39 | 7.92 | < 4.30 | 4.45 |  |  |  |  | 
14 | CCc1csc(NC(=O)Cc2ccc(OC)cc2)c1C(=O)OC | 5.04 | 4.65 | 4.71 |  |  |  |  |  |  | 
15 | N#Cc1csc(NC(=O)CN2C(=O)CCc3ccccc32)c1-c1ncn[nH]1 | 8.22 | 8.10 | 8.05 | < 4.30 | < 4.30 |  | 18 | 4.1 | 37 | 39
16 | Cc1n[nH]c(-c2c(C)csc2NC(=O)Cc2cccc3ncccc23)n1 | 7.10 | 7.09 | 7.35 | < 4.30 | < 4.30 |  |  |  |  | 
17 | Cc1nnc(-c2c(C)csc2NC(=O)Cc2ccc(-c3ccncc3)cc2)[nH]1 | 6.49 |  |  | < 5.30 | < 5.30 |  |  |  |  | 
18 | COC(=O)c1c(C)csc1NC(=O)Cc1cccc2ncccc12 | 6.96 | 6.39 | 7.26 |  |  |  |  |  |  | 
19 | Cc1csc(NC(=O)CN2C(=O)CCc3ccccc32)c1-c1ncn[nH]1 |  | 7.51 | 7.49 | < 4.30 | < 4.30 |  | 14.8 | 3.2 | 0 | 0
20 | O=C(CN1C(=O)CCc2ccccc21)Nc1scc(Cl)c1-c1ncn[nH]1 | 8.30 | 8.05 | 8.40 | < 4.30 | < 4.30 |  | 23.3 | 0.9 | 0 | 20
21 | CCOC(=O)c1c(C#N)csc1NC(=O)Cc1ccc(OC)cc1 | 6.51 | 6.03 | 6.46 |  |  |  |  |  |  | 
22 | Cc1csc(NC(=O)Cc2cccc3ncccc23)c1-c1ncn[nH]1 |  | 6.90 |  | < 4.30 | < 4.30 |  | 16.1 |  | 1 | 46
23 | N#Cc1csc(NC(=O)Cc2cccc3cnccc23)c1-c1ncn[nH]1 | 8.15 | 7.59 | 7.96 | < 4.30 | < 4.30 |  | 13.3 | 4.6 | 48 | 62
24 | COC(=O)c1c(C)csc1NC(=O)Cc1ccc(OC)cc1 | 6.15 | 5.50 | 6.23 |  |  |  |  |  |  | 
25 | O=C(Cc1cccc2ncccc12)Nc1scc(Cl)c1-c1ncn[nH]1 | 7.74 | 7.38 | 7.82 | < 4.30 | < 4.30 |  |  |  |  | 
26 | CCOC(=O)c1c(C(F)(F)F)csc1NC(=O)Cc1ccc(OC)cc1 | 4.41 | < 4.30 | 4.72 |  |  |  |  |  |  | 
27 | Cc1n[nH]c(-c2c(C)csc2NC(=O)Cc2cccc3nccnc23)n1 | 6.23 | 6.64 | 6.53 | < 5.30 | < 5.30 |  |  |  |  | 
28 | COC(=O)c1c(C)csc1NC(=O)Cc1cccc2cnccc12 | 7.21 | 6.06 | 7.51 |  |  |  |  |  |  | 
29 | COc1ccc(CC(=O)Nc2scc(C)c2-c2nc(C)n[nH]2)cc1 | 6.33 | 6.08 | 6.48 |  |  |  |  |  |  | 
30 | COC(=O)c1c(C)csc1NC(=O)Cc1ccc(OCCCN2CCCCC2)cc1 | 7.00 | 6.21 | 6.53 |  |  |  |  |  |  | 
31 | COC(=O)c1c(C)csc1NC(=O)CN1C(=O)CCc2ccccc21 | 6.90 | 6.15 | 7.11 |  |  |  |  |  |  | 
32 | Cc1n[nH]c(-c2c(C)csc2NC(=O)Cc2ccc(OCCCN3CCCCC3)cc2)n1 | 6.71 | 5.79 | 6.33 | < 5.30 | < 5.30 |  |  |  |  | 
